The text below walks through data of US4513008A, “Virucidal compositions and therapy” (The Vinoxen Company, Inc., priority 1982, dated 1985).

This assay relates to herpes virus type 2. Put plainly: Guinea pig bioassay: intravaginal HSV-2 infection, topical treatment. The format is in vivo. The note with it: for MVL Scores Days 5-8: 0 to 4 scale; for Infected, Treated Surv/Total: 28 days; for MVL Score Day: last day; for reduction in lesion scores, in words: guinea pigs, topical. The arrangement: key to MVL Score Day 5 / MVL Score Day 6 / MVL Score Day 7 / MVL Score Day: lesion severity scored on 0 to 4 scale. The procedure: In both studies, DHA was compared with ACV in a controlled study for effectiveness in reducing the occurrence and the severity of lesions resulting from infection by HSV-2 and in reducing mortality resulting from the virus infection.
Using substantially the procedures of Pancic et al., loc. cit., the topical activity of DHA, a representative and preferred virucide for use in the present method, was evaluated in mice and in guinea pigs. Both evaluations included comparative testing against ACV and the mouse tests included a comparison of two different vehicles.
A blind comparative test was carried out on guinea pigs using coded substances labeled A through D. The testers were told only that one of the four substances was ACV, that the other three coded samples were the same material, in concentrations of 0.1, 1.0 and 10 mg/ml, and that all four samples were formulated in a polyethylene glycol 1000 (PEG-1000) vehicle. A separate sample of the PEG-1000 was also submitted to serve as a placebo for treating virus control animals. The materials and experimental protocol is shown below.
Animals. Female Hartley strain albino guinea pigs weighing about 450-500 g were used. The animals were quarantined 24 hr prior to use in this study, and maintained 5 to a 32"×32"×9" stainless steel cage on Wayne guinea pig diet and water ad libitum.
Virus. Strain E194 of herpes virus type 2 was used. […] The virus was held at -90° C. until used.
Drugs. The substances tested consisted of four bottles labelled "A", "B", "C", and "D" with no identifying key. The samples were: A, 0.1 mg/ml DHA (0.003 mmol/ml); B, 5% w/w ACV (0.22 mmol/ml); C, 1 mg/ml DHA (0.03 mmol/ml); and D, 10 mg/ml DHA ([…]). […] All were treated as light-sensitive compounds.
Experimental Protocol. The guinea pigs were infected by applying a virus-soaked swab intravaginally, with agitation, for 20 seconds. […] Treatment began 20 hr later, with the compound or placebo applied topically intravaginally, perivaginally, and perianally using cotton swabs soaked in the respective substance. Treatment continued three times daily (8 a.m., noon, 4 p.m.) for 7 days. Ten infected animals were used for each coded substance, with twenty used for virus controls. Five sham-infected animals were concomitantly treated with each coded substance to serve as toxicity controls. Two guinea pigs were held separately to serve as normal untreated controls.
On days 5 through 8 post-virus inoculation, the genital area was carefully examined and signs of irritation in the toxicity controls and lesion severity in injected animals was scored on a 0 to 4 scale using the same scale as in the mouse bioassay. The results were scored as average daily lesion (ADL) scores for each group, and as mean vaginal lesion (MVL) scores, calculated as the mean of the ADL scores for days 5-8. The maximum mean score for the toxicity control animals was also determined.
On day 6 prior to the 8 a.m. treatment, intravaginal and perivaginal areas of each infected guinea pig were uniformly swabbed with sterile cotton swabs. The swab for each animal was placed in 1.0 ml of sterile Eagles minimum essential medium and immediately frozen at -90° C.; several days later all were thawed and each swab-containing sample vortexed for 15 seconds and then the sample was diluted through a series of 10-fold dilutions in sterile medium. Each dilution was assayed for virus in triplicate by adding 0.1 ml to an established monolayer of MA-104 cells in 96-well disposable plastic microplates. The plates were sealed, incubated at 72 hr at 37° C., and virus-induced cytopathic effect noted microscopically.
Data Analysis. Increases in survivors were analyzed using chi square analysis with Yate's correction. Mean survival times (MST) of animals dying on or before […] were determined for each group, and evaluated using the t test.

The mark [1] stands for this setting: C: 1 mg/ml DHA in PEG-1000, P < 0.05.
Where [2] appears, read: D: 10 mg/ml DHA in PEG-1000, P < 0.05.

As for `CCC=CCC=CCC=CCC=CCC=CCC=CCCC(=O)O` [DHA, 4,7,10,13,16,19 Docosahexaenoic Acid], the “reduction in lesion scores, in words” value is on record as “neither ACV nor the lowest dosage of DHA were able to achieve a statistically significant reduction in lesion scores”. Also, under “A: 0.1 mg/ml DHA in PEG-1000”, the “MST (mean survival time)” value turned out to be 12.3 days, the “MVL Score Day 5” value came to 2.4, the “MVL Score Day 6” value is 3.0 and the “MVL Score Day 7” value was found to be 3.5. Also, where the note is “A: 0.1 mg/ml DHA in PEG-1000”, the “MVL Scores Days 5-8” value was 3.2; the “Infected, Treated Surv/Total” value was 6/10; the “MVL Score Day” value is recorded as 3.8. Also, where the note is “C: 1 mg/ml DHA in PEG-1000”, the “MST (mean survival time)” value came to 13.3 days; the “MVL Score Day 5” value is 1.7; the “MVL Score Day 7” value came to 2.8; the “Infected, Treated Surv/Total” value is recorded as 4/10. Further, the “MVL Score Day” value (C: 1 mg/ml DHA in PEG-1000) is recorded as 3.1. Also, under setting [1], the “MVL Scores Days 5-8” value came out at 2.4 and the “MVL Score Day 6” value is recorded as 2.3. For the setting “D: 10 mg/ml DHA in PEG-1000”, the “MST (mean survival time)” value is reported as 16.5 days; the “MVL Score Day 7” value is on record as 3.0; the “Infected, Treated Surv/Total” value was 8/10; the “MVL Score Day” value came out at 3.1. In addition, under setting [2], the “MVL Scores Days 5-8” value was 2.4, the “MVL Score Day 5” value is 1.5 and the “MVL Score Day 6” value is 2.1. Moreover, the “reduction in lesion scores, in words” value (listed as C) is listed as “statistically significant reductions in lesion scores”. Under “listed as D”, the “reduction in lesion scores, in words” value is listed as “statistically significant reductions in lesion scores”.
